# Assay results reported in patent publication US20160102316A1, “STRESS TOLERANT PLANTS” (CONSEJO SUPERIOR DE INVESTIGACIONES CIENTIFICAS(CSIC), priority 2013, published 2016).
# Tests used:
# [1] = system: HA-PYL8 transcript; assay: HA-PYL8 transcript levels in ABA-treated seeds (semiquantitative RT-PCR); type: in vivo, Arabidopsis; settings: oeHA-PYL8 seeds, ABA treatment for 24 h
# Procedure: Semiquantitative PCR experiments from seedlings were performed using RNA prepared as afore-mentioned. RNA extraction from seeds was carried out as previously described (Onate-Sanchez and Vicente-Carbajosa, 2008). cDNA from all tissues was synthetized as described above. […] of one-fifth diluted cDNA was used to amplify DDA1-GFP, 3HA-PYL8 and the housekeeping gene ACTIN8 using the following primer:
# The PCR conditions were as follows: 1 min at 94° C., 35 cycles of 15 s at 94° C., 1 min at 58-62° C., and 1 min 30 s at 72° C., and finally, 5 min at 72° C. 25
# [2] = molecular target: T1, PP2C-ABA-PYL8 ternary complexes (Arabidopsis thaliana, UniProt Q9FGM1); settings: ternary complex of PYL8 with ABA and clade A PP2C; cited from earlier work
# T1 sequence (Q9FGM1 1-188): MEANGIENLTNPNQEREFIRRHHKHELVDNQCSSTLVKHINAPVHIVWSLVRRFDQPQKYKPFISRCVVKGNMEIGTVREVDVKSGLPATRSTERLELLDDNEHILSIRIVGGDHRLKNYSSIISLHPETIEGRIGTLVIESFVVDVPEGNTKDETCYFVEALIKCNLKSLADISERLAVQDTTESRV
# [3] = molecular target: T2, 3HA-PYL8 (Arabidopsis thaliana, UniProt Q9FGM1); assay: Immunoblot of 3HA-PYL8 levels in imbibed seeds; type: in vivo; settings: 24 h in MS media with 3 μM ABA
# T2 construct: expressed in transfected cells; host or cells: stably transformed Arabidopsis thaliana (Col-0) plants, line oe3HA-PYL8: seedlings or imbibed seeds; seed lines in pyl8-1 background, some crossed with oeDDA1-GFP
# T2 sequence (Q9FGM1 1-188): T1 sequence (Q9FGM1 1-188)
# Procedure: (G) Immunoblot analysis of 3HA-PYL8 levels in seeds corresponding to oe3HA-PYL8/oeDDA1-GFP and control (oe3HA-PYL8) plants. Both lines were in the pyl8-1 background. Prior to protein extraction, imbibed seeds were maintained for 24 h in MS media with or without 3 μM ABA. Anti-HA and anti-RPT5 antibodies were used to detect 3HA-PYL8 and for loading control purposes, respectively.
# (§1) For protein extraction from seedlings, proteins were extracted in buffer containing 50 mM Tris-HCl pH 7.4, 150 mM NaCl, 10mM MgCl2, 1 mM PMSF, 0.1%NP-40 and 1× complete protease inhibitor (Roche). After centrifugation at 16,000 g at 4° C., the supernatants were collected. This step was repeated twice. For protein extraction from seeds, seeds were frozen in liquid N2 and then homogenized in buffer containing 7 M urea, 2 M thiourea, 4% 3-[(3-cholamidopropyl)dimethylammonio]-1-propanesulfonate (CHAPS; w/v), 18 mM Tris-HCl pH 7.5, 0,2% Triton X100, 1× complete protease inhibitor (Roche). After 10 min incubation at 4° C. with rotation. DTT was added to protein extracts (14 mM final concentration), prior to 20 min incubation at 4° C. Extracts were clarified by centrifugation as afore-mentioned. Protein concentration in final supernatants was determined using a Bio-Rad Protein Assay kit. […]
# [4] = system: PYL8 gene expression; settings: after 3 h of ABA treatment; cited from earlier work
# [5] = molecular target: T2, 3HA-PYL8; assay: In vivo protein degradation assay (cycloheximide time course, immunoblot); settings: 8-d-old seedlings treated with cycloheximide, 50 μM ABA
# Procedure: as §1, with “kit. For in vivo co-immunoprecipitation assays, normalized seedling protein extracts were incubated with 5 μl anti-GFP antibody (Living colors Full length A.V. Polyclonal Antibody, Clontech) for 1 h at 4° C. with rotation. 10 μl of protein A-coupled beads (prewashed twice with 0.1 M Glycine pH 2.7) were added to the samples and incubated for an additional hour at 4° C. with rotation.” for “kit.”
compound,measurement,setting,value
"CC1=CC(=O)CC(C)(C)[C@@]1(O)/C=C/C(C)=C\C(=O)O [ABA, abscisic acid]",HA-PYL8 transcript levels,[1],reduced HA-PYL8 transcript levels
same,Kd,[2],20 to 40 nM
same,3HA-PYL8 accumulation in seeds,[3],increased accumulation of 3HA-PYL8
same,PYL8 gene expression,[4],reduces PYL8 gene expression
same,3HA-PYL8 degradation,[5],blocked 3HA-PYL8 degradation
